Source: US20180298344A1, “Realistic Humanized Model of Disease Matrix Environment for Evaluation of Therapeutic Reversal or Cell Fate” (Yale University, priority 2017, published 2018)

Test system: human microvascular pericytes (PC)
Assay: Short term (7 day) myofibroblast differentiation of PC on low, medium, high stiffness hydrogels with TGF-β1 or bleomycin activation
Format: cell-based
Protocol: Human microvascular PC were isolated from a readily available and nearly inexhaustible source, human placental tissue, by microvascular segment explant outgrowth (Sava et al., Microcirculation, 2015, 22:54-67; Ayres-Sander et al., PLoS One, 2013, 8:e60025; Lauridsen et al., FASEB, 2014, 28:1166-1180; Maier et al., Microcirculation, 2010, 17:367-380). Human placental tissue was segmented, digested with collagenase, and the resulting cells were cultured in M199 (Gibco, Grand Island, NY, USA) medium supplemented with 20% FBS (Hyclone Laboratories, Logan, Utah, USA), and 1% penicillin-streptomycin (Gibco). Isolated pericytes were screened by flow cytometry against NG2 (H-300, Santa Cruz Biotechnology), CD90 (K-15, Santa Cruz), CD146 (P1H12, Biolegend, San Diego, Calif., USA), PDGFR-β (18A2, Santa Cruz), α-SMA (1A4, Santa Cruz), SMMHC (N-16, Santa Cruz), CD31 (C20, Santa Cruz), CD34 (581, Sigma) and CD45 (MEM-28, Sigma). As negative control, PC were incubated with isotype matched IgG. Samples were run on a Stratedigm S1000EXi Flow Cytometer (Stratedigm, San Jose, Calif. USA) and analyzed with FlowJo software (Tree Star, Ashland, Oreg., USA).
Polyacrylamide hydrogels were prepared as previously described (Tse and Engler, Current protocols in cell biology, editorial board, Juan S. Bonifacino et al, 2010, Chapter 10, Unit 10-16). Briefly, amino-silanated coverslips were prepared by treatment with 0.1M NaOH, followed by 3-aminopropyltriethoxysilane (Sigma), and crosslinked with glutaraldehyde. Chloro-silanated coverslips were treated with dichlorodimethylsilane (Sigma). Polyacrylamide solutions of varying stiffness were prepared by altering the concentrations of acrylamide (Bio-Rad, Hercules, Calif., USA) and bis-acrylamide (Bio-Rad). Ammonium persulfate (Sigma) and tetramethylethylenediamine (Bio-Rad) were used as cross-linkers. The solution was placed between the chloro-silanated and amino-silanated coverslips and cross-linked under ambient lighting for 30 minutes, after which the amino-silanated slide, containing the hydrogel, was hydrated in PBS. The ECM components were chemically conjugated to the polyacrylamide hydrogel using the naturally occurring amine residues on the proteins. Sulfa-SANPAH (Thermo Fisher, Grand Island, N.Y., USA) was added in 50 mM 4-(2-hydroxyethyl)-1-piperazineethanesulfonic acid buffer (Sigma) and the hydrogels were placed under UV light (365 nm, 10 mW/cm^2) for 15 minutes, and incubated overnight with either 0.5 mg/mL solubilized healthy or IPF human lung ECM, or isolated ECM proteins (0.1 mg/mL human plasma fibronectin (Millipore, Billerica, Mass., USA) and 0.1 mg/mL collagen I (Sigma). Validation of protein conjugation was performed by tagging ECM with NHS-Fluorescein (5/6-carboxyfluorescein succinimidyl ester), dialyzing overnight, and rinsed extensively (Syed et al., J Vis, Exp, 2015, 97).
For short term (7 day) differentiation studies, PC (passage 3-7) were seeded on healthy or IPF lung tissue slices, polyacrylamide hydrogels, or 25 mm glass coverslips (VWR) at 100×10^3 cells per sample and activated with control media (non-activated), or 1 ng/mL TGF-β1 (PeproTech, Rocky Hill, N.J., USA) for 7 days (18, 19). For bleomycin activation, the cells were activated with 1 μg/mL bleomycin sulfate (Cayman Chemical, Ann Arbor, Mich.) for 1 day and the media was replaced with non-activated media for the remaining 6 days (Sava et al., Microcirculation, 2015, 22:54-67; Sterling et al., J Bio Chem, 1983, 258:14438-14444). TGF-β1 and bleomycin concentrations were based on reports consistent with activation of fibroblasts (Sava et al., Microcirculation, 2015, 22:54-67; Maroni and Davis, Bio Reprod, 2012, 87:127). Treatment with CCG-1423 (Sigma) was performed at day 0 for the full 7 days, and labeled as early treatment, or at day 7 and performed for 7 days, and labeled as late treatment. […]

[1] = 7 days, low, medium, high stiffness hydrogels with fibronectin and collagen I, TGF-β1 1 ng/mL 7 days or bleomycin 1 μg/mL 1 day, flow cytometry

TGF-β1: transforming growth factor (TGF)-β1, fibrotic activator, used at 1 ng/mL
vimentin expression compared to non-activated PC on substrates of the same stiffness [1]: did not induce a significant increase
α-SMA expression compared to non-activated PC on substrates of the same stiffness [1]: did not induce a significant increase
proportion of α-SMA-expressing PC (soft or stiff hydrogels, up to 7 days, presence or absence of TGF-β1): failed to affect
